Laboratory results from patent publication US20260021103A1, “IKZF2 AND CK1-ALPHA DEGRADING COMPOUNDS AND USES THEREOF” (President and Fellows of Harvard College, priority 2022, published 2026).

Columns and labels:
Type in all cases: cell-based
Details in all cases: 24 h, HEK293T GFP reporter
[1] = target: T1, CK1α (Homo sapiens, UniProt P48729+Q96SW2); test: Flow cytometry for measuring degradation, HEK293T GFP-POI reporter cells (CK1α)
T1 construct: expressed in transfected cells; host or cells: HEK293T (lentiviral transduction, puromycin selection, FACS sorting)

[2] = target: T2, IKZF2 (Homo sapiens, UniProt Q96SW2+Q9UKS7); test: Flow cytometry for measuring degradation, HEK293T GFP-POI reporter cells (IKZF2)
T2 construct: expressed in transfected cells; host or cells: HEK293T (lentiviral transduction, puromycin selection, FACS sorting)

[3] = target: T3, IKZF1 (Homo sapiens, UniProt Q13422+Q96SW2); test: Flow cytometry for measuring degradation, HEK293T GFP-POI reporter cells (IKZF1)
T3 construct: expressed in transfected cells; host or cells: HEK293T (lentiviral transduction, puromycin selection, FACS sorting)

[4] = target: GSPT1 (Homo sapiens, UniProt P15170+Q96SW2); test: Flow cytometry for measuring degradation, HEK293T GFP-POI reporter cells (GSPT1); parameters: expressed in transfected cells; host or cells: HEK293T
Sequence of GSPT1 (P15170 whole entry): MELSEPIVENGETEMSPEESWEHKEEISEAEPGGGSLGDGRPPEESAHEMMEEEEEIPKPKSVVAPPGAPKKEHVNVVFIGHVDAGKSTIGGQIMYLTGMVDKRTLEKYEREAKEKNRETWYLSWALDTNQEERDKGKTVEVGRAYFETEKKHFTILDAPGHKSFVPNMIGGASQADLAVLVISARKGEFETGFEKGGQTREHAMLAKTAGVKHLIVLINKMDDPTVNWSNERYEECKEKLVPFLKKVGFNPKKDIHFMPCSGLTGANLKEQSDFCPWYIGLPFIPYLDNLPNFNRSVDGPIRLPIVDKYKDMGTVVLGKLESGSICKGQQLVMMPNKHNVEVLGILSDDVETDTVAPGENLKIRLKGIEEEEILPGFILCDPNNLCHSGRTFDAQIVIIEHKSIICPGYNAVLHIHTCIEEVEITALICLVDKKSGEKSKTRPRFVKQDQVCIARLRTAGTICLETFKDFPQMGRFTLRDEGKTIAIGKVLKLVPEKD
Sequence of GSPT1 (Q96SW2 whole entry): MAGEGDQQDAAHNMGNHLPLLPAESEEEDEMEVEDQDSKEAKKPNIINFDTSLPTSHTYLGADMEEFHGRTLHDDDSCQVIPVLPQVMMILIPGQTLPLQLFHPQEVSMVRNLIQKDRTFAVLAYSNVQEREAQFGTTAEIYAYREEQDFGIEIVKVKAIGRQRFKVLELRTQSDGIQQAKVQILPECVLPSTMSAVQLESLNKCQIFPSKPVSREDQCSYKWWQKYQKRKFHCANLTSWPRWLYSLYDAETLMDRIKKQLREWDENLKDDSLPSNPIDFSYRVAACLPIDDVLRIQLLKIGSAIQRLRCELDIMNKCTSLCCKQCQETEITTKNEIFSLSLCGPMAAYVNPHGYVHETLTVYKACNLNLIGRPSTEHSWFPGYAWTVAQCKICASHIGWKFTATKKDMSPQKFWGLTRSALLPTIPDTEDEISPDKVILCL
Sequence of GSPT1 (Q16531 whole entry partner): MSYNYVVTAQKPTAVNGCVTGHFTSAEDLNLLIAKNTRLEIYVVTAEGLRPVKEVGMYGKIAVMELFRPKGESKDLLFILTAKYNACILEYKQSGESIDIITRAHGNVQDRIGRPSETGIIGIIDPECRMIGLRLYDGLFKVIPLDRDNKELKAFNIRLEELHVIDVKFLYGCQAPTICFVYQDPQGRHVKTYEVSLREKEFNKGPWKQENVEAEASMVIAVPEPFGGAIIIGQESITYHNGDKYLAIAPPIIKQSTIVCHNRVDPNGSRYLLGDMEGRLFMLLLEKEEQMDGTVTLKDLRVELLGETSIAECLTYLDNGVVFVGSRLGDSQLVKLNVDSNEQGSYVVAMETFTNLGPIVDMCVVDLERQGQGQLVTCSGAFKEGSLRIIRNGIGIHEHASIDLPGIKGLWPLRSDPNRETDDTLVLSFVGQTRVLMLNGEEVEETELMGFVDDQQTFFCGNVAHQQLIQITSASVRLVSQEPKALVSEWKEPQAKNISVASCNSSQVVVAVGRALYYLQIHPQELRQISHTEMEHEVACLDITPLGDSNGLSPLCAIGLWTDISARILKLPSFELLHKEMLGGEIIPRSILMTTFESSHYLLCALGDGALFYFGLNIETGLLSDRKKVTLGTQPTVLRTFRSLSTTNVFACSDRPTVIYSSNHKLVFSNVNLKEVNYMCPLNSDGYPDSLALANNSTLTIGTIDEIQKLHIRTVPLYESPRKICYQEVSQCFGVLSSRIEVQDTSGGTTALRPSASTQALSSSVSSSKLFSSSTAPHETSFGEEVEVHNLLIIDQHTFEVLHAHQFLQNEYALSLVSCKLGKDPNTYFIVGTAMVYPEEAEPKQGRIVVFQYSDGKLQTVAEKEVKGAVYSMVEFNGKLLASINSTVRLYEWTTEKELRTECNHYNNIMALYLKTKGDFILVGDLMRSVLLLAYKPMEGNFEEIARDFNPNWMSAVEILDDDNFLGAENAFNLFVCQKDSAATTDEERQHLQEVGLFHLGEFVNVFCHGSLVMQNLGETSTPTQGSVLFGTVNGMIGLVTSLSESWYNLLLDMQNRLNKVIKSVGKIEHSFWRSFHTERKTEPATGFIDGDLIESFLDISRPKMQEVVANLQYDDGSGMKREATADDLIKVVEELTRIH

T3 sequence (Q13422 whole entry): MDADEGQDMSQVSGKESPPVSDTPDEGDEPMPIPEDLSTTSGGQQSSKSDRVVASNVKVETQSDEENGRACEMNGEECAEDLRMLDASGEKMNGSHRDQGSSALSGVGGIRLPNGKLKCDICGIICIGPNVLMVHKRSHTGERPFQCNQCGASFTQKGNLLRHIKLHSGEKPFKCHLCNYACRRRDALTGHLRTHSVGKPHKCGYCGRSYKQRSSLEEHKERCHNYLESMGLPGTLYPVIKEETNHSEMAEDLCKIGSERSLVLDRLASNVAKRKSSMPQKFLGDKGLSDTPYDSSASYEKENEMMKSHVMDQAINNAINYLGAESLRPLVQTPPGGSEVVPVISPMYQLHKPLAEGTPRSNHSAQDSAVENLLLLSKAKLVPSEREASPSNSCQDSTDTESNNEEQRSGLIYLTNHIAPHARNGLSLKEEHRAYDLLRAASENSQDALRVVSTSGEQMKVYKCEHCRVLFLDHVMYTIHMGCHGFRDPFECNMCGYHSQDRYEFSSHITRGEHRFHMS
T3 sequence (Q96SW2 whole entry): as the sequence (Q96SW2 whole entry) above
T3 sequence (Q16531 whole entry partner): as the sequence (Q16531 whole entry partner) above
T1 sequence (P48729 whole entry): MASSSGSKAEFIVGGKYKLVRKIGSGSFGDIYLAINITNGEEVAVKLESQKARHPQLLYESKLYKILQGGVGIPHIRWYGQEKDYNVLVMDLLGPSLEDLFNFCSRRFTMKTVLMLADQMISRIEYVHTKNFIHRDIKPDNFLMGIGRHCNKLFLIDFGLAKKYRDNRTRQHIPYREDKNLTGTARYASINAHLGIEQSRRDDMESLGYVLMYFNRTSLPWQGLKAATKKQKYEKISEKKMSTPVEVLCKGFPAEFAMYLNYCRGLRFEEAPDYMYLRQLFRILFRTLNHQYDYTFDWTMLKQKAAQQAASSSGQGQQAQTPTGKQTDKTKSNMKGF
T1 sequence (Q96SW2 whole entry): as the sequence (Q96SW2 whole entry) above
T1 sequence (Q16531 whole entry partner): as the sequence (Q16531 whole entry partner) above
T2 sequence (Q9UKS7 whole entry): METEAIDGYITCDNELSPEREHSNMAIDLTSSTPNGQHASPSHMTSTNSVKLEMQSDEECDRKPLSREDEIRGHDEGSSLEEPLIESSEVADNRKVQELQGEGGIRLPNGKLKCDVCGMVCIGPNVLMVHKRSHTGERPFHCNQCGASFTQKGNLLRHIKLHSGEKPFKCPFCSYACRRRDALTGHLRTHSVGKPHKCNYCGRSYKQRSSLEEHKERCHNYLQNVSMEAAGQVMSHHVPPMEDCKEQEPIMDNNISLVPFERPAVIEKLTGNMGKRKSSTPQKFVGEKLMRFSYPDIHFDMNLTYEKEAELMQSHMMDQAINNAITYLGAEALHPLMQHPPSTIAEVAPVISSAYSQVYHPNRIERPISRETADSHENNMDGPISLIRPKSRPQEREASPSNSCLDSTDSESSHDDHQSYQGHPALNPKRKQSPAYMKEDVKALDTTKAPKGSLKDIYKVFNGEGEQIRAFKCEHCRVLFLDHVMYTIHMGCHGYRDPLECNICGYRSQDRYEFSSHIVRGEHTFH
T2 sequence (Q96SW2 whole entry): as the sequence (Q96SW2 whole entry) above
T2 sequence (Q16531 whole entry partner): as the sequence (Q16531 whole entry partner) above

Row | SMILES | CK1α % degradation at 100 nM [1] [%] | CK1α % degradation at 1 μM [1] [%] | IKZF2% degradation at 100 nM [2] [%] | IKZF2% degradation at 1 μM [2] [%] | IKZF1% degradation at 100 nM [3] [%] | IKZF1% degradation at 1 μM [3] [%] | GSPT1% degradation at 100 nM [4] [%] | GSPT1% degradation at 1 μM [4] [%]
1 | CC(=O)Nc1ccc2c(c1)CN(C1CCC(=O)NC1=O)C2=O (stereo not shown) [DEG-66, N-(2-(2,6-dioxopiperidin-3-yl)-1-oxoisoindolin-5-yl)acetamide] | 12 ± 1.3 | 25.4 ± 0.8 | 16.6 ± 0.1 | 48.5 ± 0.2 | 4.4 ± 0.8 | 10.9 ± 0.9 | 9.9 ± 0.8 | 8.6 ± 0.8
2 | O=C1CCC(N2Cc3cc(NC(=O)C4=Cc5ccc(OC(F)(F)F)cc5OC4)ccc3C2=O)C(=O)N1 (stereo not shown) [DEG-82, N-(2-(2,6-dioxopiperidin-3-yl)-1-oxoisoindolin-5-yl)-7-(trifluoromethoxy)-2H-chromene-3-carboxamide] | 58 ± 2.2 | 62.7 ± 1.4 | 85.4 ± 0 | 93.3 ± 0.1 | 10.6 ± 1.2 | 19.9 ± 0.3 | 6.1 ± 0.3 | 12.3 ± 0.9
3 | O=C1CCC(N2Cc3cc(NC(=O)c4ccc5ncsc5c4)ccc3C2=O)C(=O)N1 (stereo not shown) [DEG-72, N-(2-(2,6-dioxopiperidin-3-yl)-1-oxoisoindolin-5-yl)benzo[d]thiazole-6-carboxamide] | 33.2 ± 3.2 | 54.5 ± 3.8 | 41.8 ± 2 | 82.5 ± 0.9 | 2.7 ± 1.2 | 6.5 ± 1.2 | −1.7 ± 3.4 | −0.9 ± 2.6
4 | O=C1CCC(N2Cc3cc(NC(=O)c4ccc5c(c4)CCCC5)ccc3C2=O)C(=O)N1 (stereo not shown) [DEG-87, N-(2-(2,6-dioxopiperidin-3-yl)-1-oxoisoindolin-5-yl)-5,6,7,8-tetrahydronaphthalene-2-carboxamide] | 51.1 ± 1.2 | 56.9 ± 0.8 | 74 ± 0.5 | 89.1 ± 0.4 | 15.5 ± 1 | 27.2 ± 0.7 | 1.2 ± 2.5 | 4 ± 0.6
5 | COc1ccc(Oc2cccc(C(=O)Nc3ccc4c(c3)CN(C3CCC(=O)NC3=O)C4=O)c2)cc1 (stereo not shown) [DEG-69, N-(2-(2,6-dioxopiperidin-3-yl)-1-oxoisoindolin-5-yl)-3-(4-methoxyphenoxy)benzamide] | 64.8 ± 0.3 | 65.5 ± 2.3 | 89.5 ± 0.1 | 93.2 ± 0.7 | 98.6 ± 0.1 | 98.6 ± 0.1 | 12.5 ± 1.2 | 16.8 ± 1.9
6 | O=C1CCC(N2Cc3cc(NC(=O)C4=COc5ccccc5O4)ccc3C2=O)C(=O)N1 (stereo not shown) [DEG-63, N-(2-(2,6-dioxopiperidin-3-yl)-1-oxoisoindolin-5-yl)benzo[b][1,4]dioxine-2-carboxamide] | 46.4 ± 1.4 | 60.3 ± 1.2 | 70.8 ± 0.6 | 90.7 ± 0.2 | 13.4 ± 0.7 | 35.2 ± 0.6 | −0.1 ± 1.2 | 1.2 ± 0.3
7 | O=C1CCC(N2Cc3cc(NC(=O)c4ccc5c(c4)OCCO5)ccc3C2=O)C(=O)N1 (stereo not shown) [DEG-53, N-(2-(2,6-dioxopiperidin-3-yl)-1-oxoisoindolin-5-yl)-2,3-dihydrobenzo[b]dioxine-6-carboxamide] | 36.2 ± 4.5 | 55.4 ± 3.9 | 38.5 ± 0.2 | 76.5 ± 0.7 | 9.3 ± 0.8 | 8.8 ± 1.6 | 5 ± 1.4 | 2.4 ± 0.9
8 | O=C1CCC(N2Cc3cc(NC(=O)Cc4ccc5ccccc5c4)ccc3C2=O)C(=O)N1 (stereo not shown) [DEG-71, N-(2-(2,6-dioxopiperidin-3-yl)-1-oxoisoindolin-5-yl)-2-(naphthalen-2-yl)acetamide] | −190.2 ± 2.8 | −153 ± 2.3 | 93.8 ± 0.5 | 88.5 ± 3 | 98.5 ± 0.1 | 98.4 ± 0.1 | 63.1 ± 0.4 | 69.4 ± 0.6
9 | O=C1CCC(N2Cc3cc(NC(=O)c4ccc5occc5c4)ccc3C2=O)C(=O)N1 (stereo not shown) [DEG-62, N-(2-(2,6-dioxopiperidin-3-yl)-1-oxoisoindolin-5-yl)benzofuran-5-carboxamide] | 50.2 ± 1.7 | 64.7 ± 0.4 | 61.1 ± 0.5 | 90.6 ± 0.1 | 6.4 ± 0.3 | 22.3 ± 0.5 | 2 ± 2.1 | 4.4 ± 1.9
10 | COc1cc(Oc2ccccc2)ccc1C(=O)Nc1ccc2c(c1)CN(C1CCC(=O)NC1=O)C2=O (stereo not shown) [DEG-75, N-(2-(2,6-dioxopiperidin-3-yl)-1-oxoisoindolin-5-yl)-2-methoxy-4-phenoxybenzamide] | 48.1 ± 2.2 | 64 ± 1.5 | 54.6 ± 1.1 | 83.3 ± 0.3 | 2.4 ± 1.1 | 7 ± 0.4 | 0.4 ± 1.4 | 12.6 ± 1.2
11 | COc1ccc(/C=C/C(=O)Nc2ccc3c(c2)CN(C2CCC(=O)NC2=O)C3=O)cc1 (stereo not shown) [DEG-60, (E)-N-(2-(2,6-dioxopiperidin-3-yl)-1-oxoisoindolin-5-yl)-3-(4-methoxyphenyl)acrylamide] | 64.3 ± 1.3 | 68.3 ± 1.2 | 74.7 ± 0.3 | 89.5 ± 0.2 | 17.6 ± 0.8 | 40.3 ± 0.9 | 11.6 ± 1.4 | 16.5 ± 2
12 | COc1ccc2c(c1)C=C(C(=O)Nc1ccc3c(c1)CN(C1CCC(=O)NC1=O)C3=O)CO2 (stereo not shown) [DEG-78, N-(2-(2,6-dioxopiperidin-3-yl)-1-oxoisoindolin-5-yl)-6-methoxy-2H-chromene-3-carboxamide] | 65.5 ± 1.3 | 69.5 ± 1.4 | 75 ± 0.8 | 90.3 ± 0 | 15.7 ± 1.1 | 33.9 ± 0.9 | 9.2 ± 0.8 | 14.4 ± 0.5
13 | COc1ccc(Oc2ccc(C(=O)Nc3ccc4c(c3)CN(C3CCC(=O)NC3=O)C4=O)cc2)cc1 (stereo not shown) [DEG-70, N-(2-(2,6-dioxopiperidin-3-yl)-1-oxoisoindolin-5-yl)-4-(4-methoxyphenoxy)benzamide] | 44.9 ± 3.4 | 55.8 ± 5.6 | 53.6 ± 0.6 | 84.5 ± 0.3 | 6.5 ± 1.4 | 16.2 ± 0.6 | 4.3 ± 1.1 | 4.8 ± 0.4
14 | O=C1CCC(N2Cc3cc(NC(=O)c4ccc5c(c4)OCO5)ccc3C2=O)C(=O)N1 (stereo not shown) [DEG-54, N-(2-(2,6-dioxopiperidin-3-yl)-1-oxoisoindolin-5-yl)benzo[d][1,3]dioxole-5-carboxamide] | 33.5 ± 10 | 57.6 ± 3.5 | 49.2 ± 0.2 | 84.1 ± 0.3 | 7.4 ± 0.8 | 9.7 ± 1.4 | 5.2 ± 1.5 | 3.3 ± 1.7
